In patent publication US20230312556A1, “ARYLAMIDE COMPOUND, PHARMACEUTICAL COMPOSITION COMPRISING SAME, AND PREPARATION METHOD THEREFOR AND USE THEREOF” (SICHUAN KELUN-BIOTECH BIOPHARMACEUTICAL CO., LTD., priority 2020, published 2023):

Assays:
[1] = molecular target: mutant CRAF enzyme (RAF1 Y340D and Y341D) (Homo sapiens (Human), UniProt P04049, Y340D/Y341D); experiment: RAF inhibition assay (TB-PMAP2K1 kit), mutant CRAF; assay type: biochemical; details: FLUORESCEIN-MAP2K1 substrate, 60 min reaction
[2] = molecular target: mutant BRAF enzyme (BRAF-V600E) (Homo sapiens (Human), UniProt P15056, V600E); experiment: RAF inhibition assay (TB-PMAP2K1 kit), BRAF-V600E; assay type: biochemical; details: FLUORESCEIN-MAP2K1 substrate, 60 min reaction
mutant BRAF enzyme (BRAF-V600E), sequence (P15056 whole entry V600E): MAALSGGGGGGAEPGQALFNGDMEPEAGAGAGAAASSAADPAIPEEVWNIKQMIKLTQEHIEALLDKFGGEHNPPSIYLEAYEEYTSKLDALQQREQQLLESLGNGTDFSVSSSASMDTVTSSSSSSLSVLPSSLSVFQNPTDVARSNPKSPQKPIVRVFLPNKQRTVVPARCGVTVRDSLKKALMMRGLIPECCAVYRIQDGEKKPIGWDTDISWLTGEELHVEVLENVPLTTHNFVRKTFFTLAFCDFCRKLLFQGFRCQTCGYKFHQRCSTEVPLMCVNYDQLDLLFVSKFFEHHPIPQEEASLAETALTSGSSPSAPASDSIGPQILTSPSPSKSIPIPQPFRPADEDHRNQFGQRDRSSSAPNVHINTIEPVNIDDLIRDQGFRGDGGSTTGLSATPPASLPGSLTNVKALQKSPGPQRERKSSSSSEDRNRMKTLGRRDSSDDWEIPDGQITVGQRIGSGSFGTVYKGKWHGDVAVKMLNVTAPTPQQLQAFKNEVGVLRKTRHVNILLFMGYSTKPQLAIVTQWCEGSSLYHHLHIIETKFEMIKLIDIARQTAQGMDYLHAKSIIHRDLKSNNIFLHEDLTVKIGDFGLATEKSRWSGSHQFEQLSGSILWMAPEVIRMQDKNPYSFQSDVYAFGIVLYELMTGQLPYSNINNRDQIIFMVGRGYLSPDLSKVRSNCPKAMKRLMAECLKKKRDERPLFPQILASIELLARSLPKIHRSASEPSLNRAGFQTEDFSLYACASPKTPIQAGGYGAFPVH

mutant CRAF enzyme (RAF1 Y340D and Y341D), sequence (P04049 whole entry Y340D/Y341D): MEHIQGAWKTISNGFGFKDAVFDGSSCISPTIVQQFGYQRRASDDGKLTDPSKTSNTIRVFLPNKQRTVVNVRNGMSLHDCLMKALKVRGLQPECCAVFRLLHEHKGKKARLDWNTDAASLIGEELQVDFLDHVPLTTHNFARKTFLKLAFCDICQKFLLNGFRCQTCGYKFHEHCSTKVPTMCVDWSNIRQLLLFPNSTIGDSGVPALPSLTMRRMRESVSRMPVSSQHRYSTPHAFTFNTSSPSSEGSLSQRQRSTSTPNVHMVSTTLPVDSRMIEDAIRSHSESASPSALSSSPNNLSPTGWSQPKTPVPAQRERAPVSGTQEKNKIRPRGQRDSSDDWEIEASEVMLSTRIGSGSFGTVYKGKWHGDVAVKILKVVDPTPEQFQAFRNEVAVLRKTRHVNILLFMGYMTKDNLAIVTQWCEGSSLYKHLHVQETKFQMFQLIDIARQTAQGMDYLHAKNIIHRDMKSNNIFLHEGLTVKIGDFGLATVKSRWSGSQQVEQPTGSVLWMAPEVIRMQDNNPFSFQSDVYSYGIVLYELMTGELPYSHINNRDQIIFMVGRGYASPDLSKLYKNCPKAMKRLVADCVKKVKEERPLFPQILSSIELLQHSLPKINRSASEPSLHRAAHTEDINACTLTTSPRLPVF

Compound	IC50 [1] [nM]	IC50 [2] [nM]
Cc1ccc2c(Cc3cccc(C(F)(F)F)c3)nccc2c1NC(=O)c1csc2c(N)ncnc12 [Compound 19, 4-amino-N-(6-methyl-1-(3-(trifluoromethyl)benzyl)isoquinolin-5-yl)thieno[3,2-d]pyrimidine-7-carboxamide]	10.3 ± 2.29	13.9 ± 3.24
COc1ccc(Nc2nccc3c(NC(=O)c4cccc5c(N)ncnc45)c(C)ccc23)c(F)c1 [Compound 60, 4-amino-N-(1-((2-fluoro-4-methoxyphenyl)amino)-6-methylisoquinolin-5-yl)quinazoline-8-carboxamide]	3.14 ± 0.09	6.31 ± 1.09
Cc1ccc2c(Nc3ccc(F)cc3F)nccc2c1NC(=O)c1cc(F)cc2c(N)ncnc12 [Compound 85, 4-amino-N-(1-((2,4-difluorophenyl)amino)-6-methylisoquinolin-5-yl)-6-fluoroquinazoline-8-carboxamide]	4.43 ± 0.32	9.02 ± 0.86
Nc1ncnc2c(C(=O)Nc3c(F)ccc4c(Nc5cccc(Cl)c5F)nccc34)cccc12 [Compound 92, 4-amino-N-(1-((3-chloro-2-fluorophenyl)amino)-6-fluoroisoquinolin-5-yl)quinazoline-8-carboxamide]	10.8 ± 4.78	5.34 ± 0.75
Cc1ccc2c(C(O)c3cccc(C(F)(F)F)c3)nccc2c1NC(=O)c1csc2c(N)ncnc12 (stereo not drawn) [Compound 23, 4-amino-N-(1-(hydroxy(3-(trifluoromethyl)phenyl)methyl)-6-methylisoquinolin-5-yl)thieno[3,2-d]pyrimidine-7-carboxamide]	3.93 ± 1	13.2 ± 3.17
Cc1ccc2c(Nc3cc(F)c(F)cc3F)nccc2c1NC(=O)c1cccc2c(N)ncnc12 [Compound 90, 4-amino-N-(6-methyl-1-((2,4,5-trifluorophenyl)amino)isoquinolin-5-yl)quinazoline-8-carboxamide]	14.2 ± 6.59	18.6 ± 2.25
Cc1ccc2c(Nc3cc(S(C)(=O)=O)ccc3F)nccc2c1NC(=O)c1cccc2c(N)ncnc12 [Compound 89, 4-amino-N-(1-((2-fluoro-5-(methylsulfonyl)phenyl)amino)-6-methylisoquinolin-5-yl)quinazoline-8-carboxamide]	4.26 ± 0.16	7.58 ± 0.51
Cc1ccc2c(C(=O)c3cccc(C(F)(F)F)c3)nccc2c1NC(=O)c1csc2c(N)ncnc12 [Compound 22, 4-amino-N-(6-methyl-1-(3-(trifluoromethyl)benzoyl)isoquinolin-5-yl)thieno[3,2-d]pyrimidine-7-carboxamide]	14.5 ± 9.94	26.8 ± 6.82
Cc1ccc2c(Nc3cccc(C(F)(F)F)c3)nccc2c1NC(=O)c1cnc2c(N)ncnn12 [Compound 43, 4-amino-N-(6-methyl-1-((3-(trifluoromethyl)phenyl)amino)isoquinolin-5-yl)imidazo[2,1-f][1,2,4]triazine-7-carboxamide]	4.49 ± 0.95	4.84 ± 0.97
Cc1ccc2c(Nc3cccc(Cl)c3)nccc2c1NC(=O)c1cccc2c(N)ncnc12 [Compound 38, 4-amino-N-(1-((3-chlorophenyl)amino)-6-methylisoquinolin-5-yl)quinazoline-8-carboxamide]	10.8 ± 2.02	9.5 ± 2.68
Cc1ccc2c(Nc3ccc(F)cc3F)nccc2c1NC(=O)c1cccc2c(N)ncnc12 [Compound 67, 4-amino-N-(1-((2,4-difluorophenyl)amino)-6-methylisoquinolin-5-yl)quinazoline-8-carboxamide]	5.76 ± 1.04	8.66 ± 0.95
Cc1ccc2c(C(O)c3ccc(Cl)cc3F)nccc2c1NC(=O)c1csc2c(N)ncnc12 (stereo not drawn) [Compound 28, 4-amino-N-(1-((4-chloro-2-fluorophenyl)(hydroxy)methyl)-6-methylisoquinolin-5-yl)thieno[3,2-d]pyrimidine-7-carboxamide]	3.48 ± 0.48	4.58 ± 0.72
Cc1ccc2c(Nc3ccc(F)c(Cl)c3)nccc2c1NC(=O)c1cnc2c(N)ncnn12 [Compound 58, 4-amino-N-(1-((3-chloro-4-fluorophenyl)amino)-6-methylisoquinolin-5-yl)imidazo[2,1-f][1,2,4]triazine-7-carboxamide]	2.68 ± 0.13	4.47 ± 0.6
Cc1ccc2c(C(C)Oc3ccccc3)nccc2c1NC(=O)c1csc2c(N)ncnc12 (stereo not drawn) [Compound 35, 4-amino-N-(6-methyl-1-(1-phenoxyethyl)isoquinolin-5-yl)thieno[3,2-d]pyrimidine-7-carboxamide]	15.4 ± 1.89	50.4 ± 12.6
Cc1ccc2c(Nc3cccc(Cl)c3F)nccc2c1NC(=O)c1cccc2c(N)ncnc12 [Compound 1, 4-amino-N-(1-((3-chloro-2-fluorophenyl)amino)-6-methylisoquinolin-5-yl)quinazoline-8-carboxamide]	5.4 ± 0.6	4.71 ± 2.62
Cc1ccc2c(Nc3ccccc3F)nccc2c1NC(=O)c1cccc2c(N)ncnc12 [Compound 39, 4-amino-N-(1-((2-fluorophenyl)amino)-6-methylisoquinolin-5-yl)quinazoline-8-carboxamide]	2.6 ± 0.21	1.74 ± 0.23
Cc1ccc2c(Nc3cc(Cl)ccc3F)nccc2c1NC(=O)c1cccc2c(N)ncnc12 [Compound 73, 4-amino-N-(1-((5-chloro-2-fluorophenyl)amino)-6-methylisoquinolin-5-yl)quinazoline-8-carboxamide]	8.78 ± 1.48	11.9 ± 2.3
Cc1ccc2c(Nc3c(F)cc(F)cc3F)nccc2c1NC(=O)c1cccc2c(N)ncnc12 [Compound 94, 4-amino-N-(6-methyl-1-((2,4,6-trifluorophenyl)amino)isoquinolin-5-yl)quinazoline-8-carboxamide]	4.24 ± 0.17	3.46 ± 0.22
Cc1ccc2c(Cc3cccc(Cl)c3F)nccc2c1NC(=O)c1csc2c(N)ncnc12 [Compound 8, 4-amino-N-(1-(3-chloro-2-fluorobenzyl)-6-methylisoquinolin-5-yl)thieno[3,2-d]pyrimidine-7-carboxamide]	–	8.63 ± 0.99
COc1ccc(Nc2nccc3c(NC(=O)c4cnc5c(N)ncnn45)c(C)ccc23)cc1Cl [Compound 56, 4-amino-N-(1-((3-chloro-4-methoxyphenyl)amino)-6-methylisoquinolin-5-yl)imidazo[2,1-f][1,2,4]triazine-7-carboxamide]	–	3.16 ± 0.67
COc1ccc(Nc2nccc3c(NC(=O)c4cccc5c(N)ncnc45)c(C)ccc23)cc1OC [Compound 68, 4-amino-N-(1-((3,4-dimethoxyphenyl)amino)-6-methylisoquinolin-5-yl)quinazoline-8-carboxamide]	–	15 ± 2.65
Cc1cc(C(=O)Nc2c(C)ccc3c(Nc4cccc(Cl)c4F)nccc23)c2ncnc(N)c2c1 [Compound 45, 4-amino-N-(1-((3-chloro-2-fluorophenyl)amino)-6-methylisoquinolin-5-yl)-6-methylquinazoline-8-carboxamide]	–	18.2 ± 7.52
Cc1ccc2c(Nc3cccc(Cl)c3F)nccc2c1NC(=O)c1cccc2c(N)nccc12 [Comparative Example 1, 1-amino-N-(1-((3-chloro-2-fluorophenyl)amino)-6-methylisoquinolin-5-yl)isoquinoline-5-carboxamide, reference compound]	–	> 1000
Cc1ccc2c(Nc3cccc(Cl)c3F)nccc2c1NC(=O)c1cncc2c(N)ncnc12 [Compound 69, 4-amino-N-(1-((3-chloro-2-fluorophenyl)amino)-6-methylisoquinolin-5-yl)pyrido[4,3-d]pyrimidine-8-carboxamide]	–	4.3 ± 1.14
